Reference: publication PMC12250302, “Synthesis, Antimicrobial Activities, and Model of Action of Novel Tetralone Derivatives Containing Aminoguanidinium Moiety” (International Journal of Molecular Sciences, 2025)
≈ marks a conversion by molar mass, not a printed value. Where two headings read alike, the source gives them in different places.

How the values were obtained:
Test in all cases: MIC and MBC testing, broth microdilution
[1] = test system: S. aureus ATCC 29213; format: cell-based, Staphylococcus aureus; details: S. aureus ATCC 29213; for MIC: 18 h
Excerpt: (§1) The minimum inhibitory concentrations (MICs) and minimum bactericidal concentrations (MBCs) of the synthesized compounds effective against ESKAPE strains, S. aureus clinical isolates, and MRSA were investigated by the broth dilution method. Levofloxacin is a broad-spectrum antibacterial agent that is widely used in the treatment of ESKAPE infections. Therefore, levofloxacin was selected as the positive control for the preliminary activity screening. DMSO (0.1%) was selected as the negative control.
(§2) The minimum inhibitory concentration (MIC) of all synthesized compounds was tested by the broth microdilution method. In brief, compounds dissolved in DMSO were diluted twice continuously in a 96-well plate with MH broth. The ESKAPE pathogens (E. coli ATCC 25922, S. aureus ATCC 29213, K. pneumoniae ATCC 700603, A. baumannii ATCC 19606, P. aeruginosa ATCC 27853, and E. faecium ATCC 35667), clinical S. aureus isolates (LMY45, LMY46, LMY47, and LMY48) and methicillin-resistant Staphylococcus aureus (MRSA-1 and MRSA-2) were cultured in MH broth to logarithmic growth phase and then diluted to 1 × 10^6 CFU/mL in MH broth. Subsequently, the diluted bacterial solution was mixed with the diluted compound solution in a 96-well plate and incubated at 37 °C for a duration of 18 h. The MIC of the compounds was recorded as the lowest concentration at which no visible growth was observed. […] Each concentration was replicated thrice.

[2] = test system: E. faecium ATCC 35667; format: cell-based, Enterococcus faecium; details: E. faecium ATCC 35667; for MIC: 18 h
Excerpt: as §1, §2

[3] = test system: clinical S. aureus isolate LMY47; format: cell-based, Staphylococcus aureus; details: LMY47; for MIC: 18 h
Method: (§3) Furthermore, the MBC values of the compounds were detected.
as §2, with “h.” for “h. The MIC of the compounds was recorded as the lowest concentration at which no visible growth was observed.”

[4] = test system: clinical S. aureus isolate LMY45; format: cell-based, Staphylococcus aureus; details: LMY45; for MIC: 18 h
Method: as §3
as §2, with “h.” for “h. The MIC of the compounds was recorded as the lowest concentration at which no visible growth was observed.”

[5] = test system: MRSA-2; format: cell-based, Staphylococcus aureus; details: MRSA-2; for MIC: 18 h
Method: as §3
as §2, with “h.” for “h. The MIC of the compounds was recorded as the lowest concentration at which no visible growth was observed.”

[6] = test system: clinical S. aureus isolate LMY46; format: cell-based, Staphylococcus aureus; details: LMY46; for MIC: 18 h
Method: as §3
as §2, with “h.” for “h. The MIC of the compounds was recorded as the lowest concentration at which no visible growth was observed.”

[7] = test system: MRSA-1; format: cell-based, Staphylococcus aureus; details: MRSA-1; for MIC: 18 h
Method: as §3
as §2, with “h.” for “h. The MIC of the compounds was recorded as the lowest concentration at which no visible growth was observed.”

[8] = test system: clinical S. aureus isolate LMY48; format: cell-based, Staphylococcus aureus; details: LMY48; for MIC: 18 h
Method: as §3
as §2, with “h.” for “h. The MIC of the compounds was recorded as the lowest concentration at which no visible growth was observed.”

[9] = test system: P. aeruginosa ATCC 27853; format: cell-based, Pseudomonas aeruginosa
Excerpt: as §1, §2

[10] = test system: A. baumannii ATCC 19606; format: cell-based, Acinetobacter baumannii
Excerpt: as §1, §2

[11] = test system: E. coli ATCC 25922; format: cell-based, Escherichia coli
Excerpt: as §1, §2

[12] = test system: K. pneumoniae ATCC 700603; format: cell-based, Klebsiella pneumoniae; details: Klebsiella pneumoniae; for MIC: ATCC700603, 18 h, read-out: MIC; for MBC: ATCC700603, read-out: MBC
Excerpt: as §1, §2

[13] = Staphylococcus aureus, ATCC29213, read-out: MIC
[14] = Staphylococcus aureus, ATCC29213, read-out: MBC
[15] = Enterococcus faecium, ATCC35667, read-out: MIC
[16] = Enterococcus faecium, ATCC35667, read-out: MBC
[17] = Staphylococcus aureus, read-out: MIC
[18] = Staphylococcus aureus, read-out: MBC
[19] = Pseudomonas aeruginosa, ATCC27853, 18 h, read-out: MIC
[20] = Acinetobacter baumannii, ATCC19606, 18 h, read-out: MIC
[21] = Acinetobacter baumannii, ATCC19606, read-out: MBC
[22] = Escherichia coli, ATCC25922, 18 h, read-out: MIC
[23] = Escherichia coli, ATCC25922, read-out: MBC

Compound: [H]/N=C(\N)NN=C1CCCc2cc(OCc3cc(F)ccc3F)ccc21 [Compound 1E, (E)-2-(6-((2,5-difluorobenzyl)oxy)-3,4-dihydronaphthalen-1(2H)-ylidene)hydrazine-1-carboximidamide]
- MIC [1, 13]: 2 µg/mL (≈ 5.81 µM)
- MBC [1, 14]: 16 µg/mL (≈ 46.5 µM)
- MIC [2, 15]: 4 µg/mL (≈ 11.6 µM)
- MBC [2, 16]: 16 µg/mL (≈ 46.5 µM)
- MIC [3, 17]: 2 µg/mL (≈ 5.81 µM)
- MBC [3, 18]: 8 µg/mL (≈ 23.2 µM)
- MIC [4, 17]: 2 µg/mL (≈ 5.81 µM)
- MBC [4, 18]: 4 µg/mL (≈ 11.6 µM)
- MIC [5, 17]: 2 µg/mL (≈ 5.81 µM)
- MBC [5, 18]: 8 µg/mL (≈ 23.2 µM)
- MIC [6, 17]: 2 µg/mL (≈ 5.81 µM)
- MBC [6, 18]: 8 µg/mL (≈ 23.2 µM)
- MIC [7, 17]: 2 µg/mL (≈ 5.81 µM)
- MBC [7, 18]: 32 µg/mL (≈ 92.9 µM)
- MIC [8, 17]: 2 µg/mL (≈ 5.81 µM)
- MBC [8, 18]: 2 µg/mL (≈ 5.81 µM)
- MIC [9, 19]: > 32 µg/mL
- MIC [10, 20]: 8 µg/mL (≈ 23.2 µM)
- MBC [10, 21]: 8 µg/mL (≈ 23.2 µM)
- MIC [11, 22]: 8 µg/mL (≈ 23.2 µM)
- MBC [11, 23]: 8 µg/mL (≈ 23.2 µM)
- MIC [12]: 32 µg/mL (≈ 92.9 µM)
- MBC [12]: 32 µg/mL (≈ 92.9 µM)

Compound: [H]/N=C(\N)NN=C1CCCc2cc(OCc3c(F)cccc3F)ccc21 [Compound 1F, (E)-2-(6-((2,6-difluorobenzyl)oxy)-3,4-dihydronaphthalen-1(2H)-ylidene)hydrazine-1-carboximidamide]
- MIC [1, 13]: 4 µg/mL (≈ 11.6 µM)
- MBC [1, 14]: 16 µg/mL (≈ 46.5 µM)
- MIC [2, 15]: 8 µg/mL (≈ 23.2 µM)
- MBC [2, 16]: 16 µg/mL (≈ 46.5 µM)
- MIC [3, 17]: 4 µg/mL (≈ 11.6 µM)
- MBC [3, 18]: 8 µg/mL (≈ 23.2 µM)
- MIC [4, 17]: 4 µg/mL (≈ 11.6 µM)
- MBC [4, 18]: 8 µg/mL (≈ 23.2 µM)
- MIC [5, 17]: 4 µg/mL (≈ 11.6 µM)
- MBC [5, 18]: 16 µg/mL (≈ 46.5 µM)
- MIC [6, 17]: 4 µg/mL (≈ 11.6 µM)
- MBC [6, 18]: > 32 µg/mL
- MIC [7, 17]: 4 µg/mL (≈ 11.6 µM)
- MBC [7, 18]: 32 µg/mL (≈ 92.9 µM)
- MIC [8, 17]: 4 µg/mL (≈ 11.6 µM)
- MBC [8, 18]: 16 µg/mL (≈ 46.5 µM)
- MIC [9, 19]: > 32 µg/mL
- MIC [10, 20]: 16 µg/mL (≈ 46.5 µM)
- MBC [10, 21]: 16 µg/mL (≈ 46.5 µM)
- MIC [11, 22]: 16 µg/mL (≈ 46.5 µM)
- MBC [11, 23]: 16 µg/mL (≈ 46.5 µM)
- MIC [12]: 32 µg/mL (≈ 92.9 µM)
- MBC [12]: 32 µg/mL (≈ 92.9 µM)

Compound: C[C@H]1COc2c(N3CCN(C)CC3)c(F)cc3c(=O)c(C(=O)O)cn1c23 [Levofloxacin, reference compound]
- MIC [1, 13]: ≤ 1 µg/mL
- MBC [1, 14]: ≤ 1 µg/mL
- MIC [2, 15]: ≤ 1 µg/mL
- MBC [2, 16]: 2 µg/mL (≈ 5.53 µM)
- MIC [9, 19]: ≤ 1 µg/mL
- MBC ([9]; Pseudomonas aeruginosa, ATCC27853, read-out: MBC): 2 µg/mL (≈ 5.53 µM)
- MIC [10, 20]: ≤ 1 µg/mL
- MBC [10, 21]: 2 µg/mL (≈ 5.53 µM)
- MIC [11, 22]: ≤ 1 µg/mL
- MBC [11, 23]: ≤ 1 µg/mL
- MIC [12]: ≤ 1 µg/mL
- MBC [12]: 4 µg/mL (≈ 11.1 µM)

Compound: (E)-2-(6-(4-isopropylphenoxy)-3,4-dihydronaphthalen-1(2H)-ylidene)hydrazine-1-carboximidamide [Compound 1X]
- MBC [1]: 4 µg/mL
- MIC [1]: 2 µg/mL
- MBC [2]: 4 µg/mL
- MIC [2]: 2 µg/mL
- MBC [3]: 8 µg/mL
- MIC [3]: 2 µg/mL
- MBC [4]: 4 µg/mL
- MIC [4]: 2 µg/mL
- MBC [5]: 4 µg/mL
- MIC [5]: 1 µg/mL
- MBC [6]: 2 µg/mL
- MIC [6]: 2 µg/mL
- MBC [7]: 8 µg/mL
- MIC [7]: 4 µg/mL
- MBC [8]: 8 µg/mL
- MIC [8]: 2 µg/mL
- MBC [9]: > 32 µg/mL
- MIC ([9]; 18 h): 32 µg/mL
- MBC [10]: 8 µg/mL
- MIC ([10]; 18 h): 4 µg/mL
- MBC [11]: 8 µg/mL
- MIC ([11]; 18 h): 4 µg/mL
